Test results: PubChem BioAssay AID1963866 (Molecular Pharmacology Branch, DTP, NCI, 2024)

System: PDC KRAS tumor spheroids with HUVEC/MSC, viability
Assay: Anticancer human tumor 349418-098-R-PDC patient-derived lung adenocarcinoma cell line growth inhibition [KRAS2]
Conditions: for IC50: curve of first compound; for viability, T/C: stronger effect = lower value; active = viability on the fitted dose curve at most 10% of control; inactive = the rest
Method in brief: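 KRAS-mutant tumor cells were grown as spheroids with HUVEC endothelial cells and human MSCs as stroma. Targeted agents were tested alone and with KRAS pathway inhibitors. Doses started at or near clinical Cmax, or 10 microM, descending half-log.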

[1] = second compound 0.0316 µM, first compound 0.0316 µM
[2] = second compound 0.0316 µM, first compound 0.1 µM
[3] = second compound 0.0316 µM, first compound 0.316 µM
[4] = second compound 0.0316 µM, first compound 1 µM
[5] = second compound 0.0316 µM, first compound 3.16 µM
[6] = second compound 0.0316 µM, first compound 10 µM
[7] = second compound 0.1 µM, first compound 0.0316 µM
[8] = second compound 0.1 µM, first compound 0.1 µM
[9] = second compound 0.1 µM, first compound 0.316 µM
[10] = second compound 0.1 µM, first compound 1 µM
[11] = second compound 0.1 µM, first compound 3.16 µM
[12] = second compound 0.1 µM, first compound 10 µM
[13] = second compound 0.316 µM, first compound 0.0316 µM
[14] = second compound 0.316 µM, first compound 0.1 µM
[15] = second compound 0.316 µM, first compound 0.316 µM
[16] = second compound 0.316 µM, first compound 1 µM
[17] = second compound 0.316 µM, first compound 3.16 µM
[18] = second compound 0.316 µM, first compound 10 µM
[19] = second compound 1 µM, first compound 0.0316 µM
[20] = second compound 1 µM, first compound 0.1 µM
[21] = second compound 1 µM, first compound 0.316 µM
[22] = second compound 1 µM, first compound 1 µM
[23] = second compound 1 µM, first compound 3.16 µM
[24] = second compound 1 µM, first compound 10 µM
[25] = second compound 3.16 µM, first compound 0.0316 µM
[26] = second compound 3.16 µM, first compound 0.1 µM
[27] = second compound 3.16 µM, first compound 0.316 µM
[28] = second compound 3.16 µM, first compound 1 µM
[29] = second compound 3.16 µM, first compound 3.16 µM
[30] = second compound 3.16 µM, first compound 10 µM
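Also: spheroids exposed to compounds for seven days before readout.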

COc1cc(Nc2ncc3c(n2)-c2ccc(Cl)cc2C(c2c(F)cccc2OC)=NC3)ccc1C(=O)O + C=CC(=O)N1CCN(c2nc(OCC3CCCN3C)nc3c2CCN(c2cccc4cccc(C)c24)C3)CC1CC#N
active: viability, T/C [25] 0.09% | viability, T/C [26] 0.09% | viability, T/C [27] 0.11% | viability, T/C [28] 0.08% | viability, T/C [29] 0.49% | viability, T/C [30] 0.12%
41 nM: IC50 (second compound 0.0316 µM)
< 31.6 nM: IC50 (second compound 0.316 µM) | IC50 (second compound 1 µM) | IC50 (second compound 3.16 µM)
inactive: viability, T/C [1] 55.8% | viability, T/C [2] 29.1% | viability, T/C [3] 33.7% | viability, T/C [4] 28.3% | viability, T/C [5] 28.1% | viability, T/C [6] 21.2% | viability, T/C [7] 60.8% | viability, T/C [8] 36.3% | viability, T/C [9] 36.3% | viability, T/C [10] 26.1% | viability, T/C [11] 28.2% | viability, T/C [12] 25.4% | viability, T/C [13] 49.7% | viability, T/C [14] 20.5% | viability, T/C [15] 27.8% | viability, T/C [16] 31.9% | viability, T/C [17] 20.2% | viability, T/C [18] 19.4% | viability, T/C [19] 24% | viability, T/C [20] 24% | viability, T/C [21] 21.8% | viability, T/C [22] 19.7% | viability, T/C [23] 16.2% | viability, T/C [24] 17%
55.2 nM: IC50 (second compound 0.1 µM)

COc1cc2nccc(Oc3ccc(NC(=O)C4(C(=O)Nc5ccc(F)cc5)CC4)cc3)c2cc1OC + C=CC(=O)N1CCN(c2nc(OCC3CCCN3C)nc3c2CCN(c2cccc4cccc(C)c24)C3)CC1CC#N
1560 nM: IC50 (second compound 0.0316 µM)
1530 nM: IC50 (second compound 0.316 µM)
inactive: viability, T/C [1] 96.3% | viability, T/C [2] 96.9% | viability, T/C [3] 92.2% | viability, T/C [4] 72.5% | viability, T/C [5] 10.1% | viability, T/C [6] 19.4% | viability, T/C [7] 88.5% | viability, T/C [8] 95.8% | viability, T/C [9] 93.7% | viability, T/C [10] 74.6% | viability, T/C [11] 7.5% | viability, T/C [12] 15.7% | viability, T/C [13] 93.2% | viability, T/C [14] 88.6% | viability, T/C [15] 85.3% | viability, T/C [16] 72.8% | viability, T/C [17] 7.47% | viability, T/C [18] 15.3% | viability, T/C [19] 73.5% | viability, T/C [20] 79.7% | viability, T/C [21] 68.4% | viability, T/C [22] 33.7%
active: viability, T/C [23] 1.78% | viability, T/C [24] 0.85% | viability, T/C [25] 0.14% | viability, T/C [26] 0.28% | viability, T/C [27] 0.29% | viability, T/C [28] 0.22% | viability, T/C [29] 0.19% | viability, T/C [30] 0.14%
588 nM: IC50 (second compound 1 µM)
< 31.6 nM: IC50 (second compound 3.16 µM)
1570 nM: IC50 (second compound 0.1 µM)

Cn1ncnc1[C@H]1c2n[nH]c(=O)c3cc(F)cc(c23)N[C@@H]1c1ccc(F)cc1 + C=CC(=O)N1CCN(c2nc(OCC3CCCN3C)nc3c2CCN(c2cccc4cccc(C)c24)C3)CC1CC#N
< 0.316 nM: IC50 (second compound 3.16 µM)
inactive: viability, T/C (second compound 0.0316 µM, first compound 0.000316 µM) 98.3% | viability, T/C (second compound 0.0316 µM, first compound 0.001 µM) 93.3% | viability, T/C (second compound 0.0316 µM, first compound 0.00316 µM) 84.3% | viability, T/C (second compound 0.0316 µM, first compound 0.01 µM) 85.5% | viability, T/C [1] 86.8% | viability, T/C [2] 74.9% | viability, T/C (second compound 0.1 µM, first compound 0.000316 µM) 93.7% | viability, T/C (second compound 0.1 µM, first compound 0.001 µM) 96.9% | viability, T/C (second compound 0.1 µM, first compound 0.00316 µM) 83.6% | viability, T/C (second compound 0.1 µM, first compound 0.01 µM) 80.3% | viability, T/C [7] 74.3% | viability, T/C [8] 75.9% | viability, T/C (second compound 0.316 µM, first compound 0.000316 µM) 94.8% | viability, T/C (second compound 0.316 µM, first compound 0.001 µM) 97.9% | viability, T/C (second compound 0.316 µM, first compound 0.00316 µM) 85.7% | viability, T/C (second compound 0.316 µM, first compound 0.01 µM) 85.7% | viability, T/C [13] 79.2% | viability, T/C [14] 68% | viability, T/C (second compound 1 µM, first compound 0.000316 µM) 84.4% | viability, T/C (second compound 1 µM, first compound 0.001 µM) 82.8% | viability, T/C (second compound 1 µM, first compound 0.00316 µM) 68.6% | viability, T/C (second compound 1 µM, first compound 0.01 µM) 75.2% | viability, T/C [19] 70.2% | viability, T/C [20] 58.8%
active: viability, T/C (second compound 3.16 µM, first compound 0.000316 µM) 0.16% | viability, T/C (second compound 3.16 µM, first compound 0.001 µM) 0.14% | viability, T/C (second compound 3.16 µM, first compound 0.00316 µM) 2.18% | viability, T/C (second compound 3.16 µM, first compound 0.01 µM) 1.01% | viability, T/C [25] 0.72% | viability, T/C [26] 0.18%
> 100 nM: IC50 (second compound 0.0316 µM) | IC50 (second compound 0.1 µM) | IC50 (second compound 0.316 µM) | IC50 (second compound 1 µM)
